According to US8008337B2, “Azabicyclo[3.2.0] hept-3-yl compounds, a process for their preparation and pharmaceutical compositions containing them” (Les Laboratoires Servier, priority 2009, dated 2011):

Legend:
Type in all cases: in vivo
[1] = tested on: awake Wistar rat; assay: Electroencephalogram recordings in the awake Wistar rat; details: 3 mg/kg IP, cortical EEG
Protocol: Electrodes are chronically implanted in adult male Wistar rats, being located at the surface of the frontal and parietal cortex. Cortical electroencephalogram (EEG) recordings are made in the rats placed in cages in a sound-proofed room. The compounds and carriers are administered in randomised manner by the intraperitoneal route at 10 o'clock on the same days with a minimum of 3 days between each administration, allowing each rat to be used as its own control. The absolute power of the slow delta activities (1-4 Hz), which predominate during slow sleep and disappear during wakefulness and paradoxical sleep, is averaged over successive periods of 30 minutes. Over 30 minutes, high and low values for the power of the slow delta activities are signs of […], respectively.

[2] = tested on: Wistar rat; assay: Interaction with barbital in the Wistar rat; details: 10 mg/kg PO 30 minutes before barbital 170 mg/kg IP, sleep measured for 4 hours
Protocol: The objective of this test is to determine the anti-sedative, awakening and/or anti-hypnotic properties of the compounds of the present invention. The rats are placed in individual cages and are given an injection of barbital (170 mg/kg IP). The duration of sleep is then measured for 4 hours after the injection of barbital, determined on the basis of loss of the righting reflex. The compounds of the invention or their carriers are administered by the oral route 30 minutes before the administration of barbital.

[3] = tested on: Sprague-Dawley rat; assay: Object recognition in the Sprague-Dawley rat; details: 3 mg/kg PO 60 minutes before each session, second session 24 hours later
Description: The object recognition test in the Sprague-Dawley rat (Behav. Brain Res., 1988, 31, 47-59) is based on the spontaneous exploratory activity of the animal and has the characteristics of episodic memory in humans. This memory test is sensitive to ageing (Eur. J. Pharmacol., 1997, 325, 173-180) and to cholinergic dysfunctions (Pharm. Biochem. Behav. 1996, 53(2), 277-283) and is based on the differences in the exploration of 2 objects of fairly similar shape—one familiar, the other new. Prior to the test, the animals are habituated to the environment (an enclosure without an object). In the course of a first session, the rats are placed (3 minutes) in the enclosure, in which there are 2 identical objects. The duration of exploration is measured for each object. In the course of the second session (3 minutes), 24 hours later, 1 of the 2 objects is replaced by a new object. The duration of exploration is measured for each object. The assessment criterion is the difference, Delta, expressed in seconds, between the exploration times for the new object and for the familiar object in the course of the second session.

[4] = tested on: Wistar rat; assay: Social recognition in the Wistar rat; details: second encounter after 2 hours
Description: Initially described in 1982 (J. Comp. Physiol., 1982, 96, 1000-1006), the social recognition test has subsequently been proposed by various authors (Psychopharmacology, 1987, 91, 363-368; Psychopharmacology, 1989, 97, 262-268) for studying the mnemocognitive effects of new compounds. The test is based on the natural expression of the olfactory memory of the rat and its natural tendency to forget and allows evaluation of memorisation, by recognition of a young congeneric animal, by an adult rat. A young rat (21 days), taken at random, is placed for 5 minutes in the cage housing an adult rat. With the aid of a video device, the experimenter observes the social recognition behaviour of the adult rat and measures its overall duration. The young rat is then removed from the adult rat's cage and is placed in its own cage until the second introduction. The adult rat is given the compound under test by the intraperitoneal route and, after 2 hours, is again brought into the presence (5 minutes) of the young rat. The social recognition behaviour is then observed again and its duration measured. The assessment criterion is the difference (T2−T1), expressed in seconds, between the “recognition” times of the 2 encounters.

[5] = tested on: NMRI mouse; assay: Tail suspension test in the NMRI mouse; details: 10 mg/kg IP, 24 hours and 30 minutes before suspension, 6 minutes
Protocol: The tail suspension test in the mouse (Porsolt et al., Arch. Int. Pharmacodyn., 1987, 288, 11) enables detection of psychopharmacological properties of compounds. NMRI mice are suspended by the tail, with the aid of a piece of adhesive tape, from a hook for 6 minutes: the immobility time is measured automatically with the aid of movement sensors. The animals are treated, by the intraperitoneal route, with the compounds of the invention or their carriers 24 hours and 30 minutes before they are suspended.

[6] = tested on: extracellular levels of dopamine; assay: Intracerebral microdialysis in the striatum of the awake rat; details: 10 mg/kg i.p., striatum microdialysate, awake Wistar rat
Protocol: Intracerebral microdialysis in the awake rat makes it possible to assess the influence of a compound on the release of neurotransmitters such as dopamine into the extracellular space of small cerebral structures, especially the striatum.
This technique is carried out in two steps: a surgery step (stereotaxic implantation of a cannula-guide carried out on the anaesthetised animal) and a microdialysis step carried out on the awake animal (collection of samples of extracellular cerebral liquid). Male rats of the Wistar strain (280-320 g) are anaesthetised and placed in a stereotaxic apparatus. A guide cannula is implanted in the striatum of the animals according to the following stereotaxic coordinates: antero-posteriority −1 mm, laterality +2.8 mm, depth −3 mm, relative to the bregma, according to the atlas of Paxinos and Watson (1996). One week after the surgery, a microdialysis probe (CMA11, length 4 mm, Phymep) is inserted into the guide cannula. The animals are placed in experimentation cages and the to probe inlet is connected to a pump continuously perfusing artificial cerebrospinal fluid (flow rate 1 μl/min). […] The extracellular levels of dopamine are assessed in each microdialysate using a liquid chromatographic technique coupled with electrochemical detection. The values are expressed as the mean±SEM relative to the baseline values (reference 100%).

Cl.NC(=O)c1ccc(OCCCN2C[C@H]3CC[C@H]3C2)cc1 [Example 1, 4-{3-[(1R,5S)-3-Azabicyclo[3.2.0]hept-3-yl]-propoxy}benzamide hydrochloride]
duration of reduction in power of the slow delta waves [1]: 120 min
effect on power of the slow delta waves (1-4 Hz) [1]: significant reduction
reduction of the duration of sleeping caused by barbital [2]: −81%
difference, Delta, between exploration times for the new and the familiar object [3]: ~8 s
difference (T2−T1) between recognition times ([4]; 1 mg/kg IP): 24 s
difference (T2−T1) between recognition times ([4]; 3 mg/kg IP): 36 s
increase in the immobility time [5]: 119%
increase in endogenous cerebral concentrations of dopamine (in comparison with basal values) [6]: +123%
